In this assay the target is wt human LRRK2, catalytic site (Homo sapiens (Human), UniProt Q5S007). Nature of the assay: TR-FRET LanthaScreen Tb Kinase Activity Assay (LRRK2 kinase inhibition). The note with it: 2 nM wt human LRRK2, 400 nM fluorescein-ERM (LRRKtide) peptide, 38 μM ATP, 120 minutes at room temperature. The assay is classed as biochemical. An outline of the steps: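 LanthaScreen TR-FRET with 2 nM wt human LRRK2 catalytic site, 400 nM fluorescein-ERM (LRRKtide) peptide and 38 µM ATP in Kinase Buffer A; 120 min at room temperature. Phosphorylation detected with EDTA and Tb-anti-pLRRKtide after 60 min; IC50 from emission ratios.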

35 molecules from patent US20240174647A1 (NEURON23, INC., priority 2022, published 2024) can be followed below.

Molecules are shown by their SMILES.

wt human LRRK2, catalytic site, sequence (Q5S007 1879-2138): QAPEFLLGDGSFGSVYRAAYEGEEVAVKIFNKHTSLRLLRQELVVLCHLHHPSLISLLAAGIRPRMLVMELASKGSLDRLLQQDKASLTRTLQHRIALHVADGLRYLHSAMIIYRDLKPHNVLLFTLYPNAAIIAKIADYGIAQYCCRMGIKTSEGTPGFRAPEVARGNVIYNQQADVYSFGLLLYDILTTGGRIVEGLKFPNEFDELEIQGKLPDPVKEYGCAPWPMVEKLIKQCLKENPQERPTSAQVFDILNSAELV

Molecule `CNc1nc(Nc2ccc(C3=CCN(C)CC3)c3c2cnn3C)ncc1C(F)(F)F` [Example 81, N4-methyl-N2-(1-methyl-7-(1-methyl-1,2,3,6-tetrahydropyridin-4-yl)-1H-indazol-4-yl)-5-(trifluoromethyl)pyrimidine-2,4-diamine] had an IC50 of under 50 nM.

`CC(C)Nc1nc(Nc2ccc3c4c2cnn4CCO3)ncc1C(F)(F)F` [Example 180, N^4-isopropyl-N^2-(9-oxa-1,2-diazatricyclo[6.3.1.04,12]dodeca-2,4,6,8(12)-tetraen-5-yl)-5-(trifluoromethyl)pyrimidine-2,4-diamine]: the IC50 was under 50 nM. As to `CC1(Nc2nc(Nc3cccc4c3cnn4CC#N)ncc2C(F)(F)F)CC1` [Example 105, 2-(4-((4-((1-methylcyclopropyl)amino)-5-(trifluoromethyl)pyrimidin-2-yl)amino)-1H-indazol-1-yl)acetonitrile], the IC50 was under 50 nM. The same measure for `CC(C)n1ncc2c(Nc3ncc(C(F)(F)F)c(NC4CC4)n3)cccc21` [Example 169, N4-cyclopropyl-N2-(1-isopropyl-1H-indazol-4-yl)-5-(trifluoromethyl)pyrimidine-2,4-diamine]: under 50 nM; for `CNc1nc(Nc2cc(C(F)(F)F)cc3c2cnn3CC#N)ncc1C(F)(F)F` [Example 90, 2-(4-((4-(methylamino)-5-(trifluoromethyl)pyrimidin-2-yl)amino)-6-(trifluoromethyl)-1H-indazol-1-yl)acetonitrile]: under 50 nM.

`C[C@]1(n2ncc3c(Nc4ncc(C(F)(F)F)c(NC5CC5)n4)cccc32)CCOC1=O` [Example 167, (S)-3-(4-((4-(cyclopropylamino)-5-(trifluoromethyl)pyrimidin-2-yl)amino)-1H-indazol-1-yl)-3-methyldihydrofuran-2(3H)-one] gave a concentration for half-maximal inhibition (IC50) of under 50 nM. `CNc1nc(Nc2cc(CCC(=O)N3CCOCC3)cc3c2cnn3C)ncc1C(F)(F)F` [Example 54, 3-(1-methyl-4-((4-(methylamino)-5-(trifluoromethyl)pyrimidin-2-yl)amino)-1H-indazol-6-yl)-1-morpholinopropan-1-one] gave an IC50 of 50 to 200 nM. Regarding `CNc1nc(Nc2c(C)nn3c(C#N)cccc23)ncc1C(F)(F)F` [Example 65, 2-methyl-3-((4-(methylamino)-5-(trifluoromethyl)pyrimidin-2-yl)amino)pyrazolo[1,5-a]pyridine-7-carbonitrile], the IC50 is at least 200 nM. The same measure for `CNc1nc(Nc2ccc(C(F)(F)F)c3c2cnn3CC#N)ncc1C(F)(F)F` [Example 80, 2-(4-((4-(methylamino)-5-(trifluoromethyl)pyrimidin-2-yl)amino)-7-(trifluoromethyl)-1H-indazol-1-yl)acetonitrile]: under 50 nM; for `N#CCn1ncc2c(Nc3ncc(C(F)(F)F)c(NCC(F)(F)F)n3)cccc21` [Example 106, 2-(4-((4-((2,2,2-trifluoroethyl)amino)-5-(trifluoromethyl)pyrimidin-2-yl)amino)-1-indazol-1-yl)acetonitrile]: under 50 nM; for `CNc1nc(Nc2ccc(OC(F)(F)F)c3c2cnn3CC#N)ncc1C(F)(F)F` [Example 84, 2-(4-((4-(methylamino)-5-(trifluoromethyl)pyrimidin-2-yl)amino)-7-(trifluoromethoxy)-1H-indazol-1-yl)acetonitrile]: under 50 nM. `CNc1nc(Nc2nn(C)c3ccccc23)ncc1C(F)(F)F` [Example 67, N4-methyl-N2-(1-methyl-1H-indazol-3-yl)-5-(trifluoromethyl)pyrimidine-2,4-diamine] displayed an IC50 of at least 200 nM. As to `CNc1nc(Nc2cc(CC#N)cc3[nH]ncc23)ncc1C(F)(F)F` [Example 50, 2-(4-((4-(methylamino)-5-(trifluoromethyl)pyrimidin-2-yl)amino)-1H-indazol-6-yl)acetonitrile], the IC50 was under 50 nM. The same measure for `CNc1nc(Nc2cc3[nH]ncc3cc2OC)ncc1C(F)(F)F` [Example 3, N2-(5-methoxy-1H-indazol-6-yl)-N4-methyl-5-(trifluoromethyl)pyrimidine-2,4-diamine]: under 50 nM; for `CNc1nc(Nc2ccc3cn(C)nc3c2C)ncc1C(F)(F)F` [Example 19, N2-(2,7-dimethyl-2H-indazol-6-yl)-N4-methyl-5-(trifluoromethyl)pyrimidine-2,4-diamine]: under 50 nM. In turn, `CC(C)(O)Cn1ncc2c(Nc3ncc(C(F)(F)F)c(NC4CC4)n3)ccnc21` [Example 201, 1-(4-((4-(cyclopropylamino)-5-(trifluoromethyl)pyrimidin-2-yl)amino)-1H-pyrazolo[3,4-b]pyridin-1-yl)-2-methylpropan-2-ol] came in with an IC50 of under 50 nM. The same measure for `CC(C)S(=O)(=O)n1ncc2c(Nc3ncc(C(F)(F)F)c(NC4CC4)n3)cccc21` [Example 135, N^4-cyclopropyl-N^2-(1-isopropylsulfonylindazol-4-yl)-5-(trifluoromethyl) pyrimidine-2,4-diamine]: under 50 nM. `COCCNc1nc(Nc2cccc3c2cnn3S(=O)(=O)C2CC2)ncc1C(F)(F)F` [Example 145, N^2-(1-cyclopropylsulfonylindazol-4-yl)-N^4-(2-methoxyethyl)-5-(trifluoromethyl) pyrimidine-2,4-diamine] returned an IC50 of under 50 nM.

In the case of `CCNc1nc(Nc2cccc3c2cnn3C(C)(C)C#N)nc2[nH]cc(Cl)c12` [Example 156, 2-(4-((5-chloro-4-(ethylamino)-7H-pyrrolo[2,3-d]pyrimidin-2-yl)amino)-1H-indazol-1-yl)-2-methylpropanenitrile], the IC50 was under 50 nM. `CC(C)(O)Cn1ncc2c(Nc3ncc(C(F)(F)F)c(NC4CC4)n3)ccc(F)c21` [Example 172, 1-(4-((4-(cyclopropylamino)-5-(trifluoromethyl)pyrimidin-2-yl)amino)-7-fluoro-1H-indazol-1-yl)-2-methylpropan-2-ol] came in with a concentration for half-maximal inhibition (IC50) of under 50 nM. Turning to `CC(C)(O)Cn1ncc2c(Nc3ncc(C(F)(F)F)c(NC4CC4)n3)cccc21` [Example 146, 1-[4-[[4-(cyclopropylamino)-5-(trifluoromethyl)pyrimidin-2-yl]amino]indazol-1-yl]-2-methyl-propan-2-ol], the IC50 is under 50 nM.

The molecule `CCNc1nc(Nc2ccc(F)c3c2cnn3CC(C)(C)O)nc2[nH]nc(Cl)c12` [Example 181, 1-(4-((3-chloro-4-(ethylamino)-1H-pyrazolo[3,4-d]pyrimidin-6-yl)amino)-7-fluoro-1H-indazol-1-yl)-2-methylpropan-2-ol] gave an IC50 of under 50 nM. The same measure for `CC(C)(C#N)n1ncc2c(Nc3ncc(C(F)(F)F)c(NCCF)n3)cccc21` [Example 144, 2-(4-((4-((2-fluoroethyl)amino)-5-(trifluoromethyl)pyrimidin-2-yl)amino)-1H-indazol-1-yl)-2-methylpropanenitrile]: under 50 nM; for `CNc1nc(Nc2ccc(F)c3c2cnn3CC#N)ncc1C(F)(F)F` [Example 85, 2-(7-fluoro-4-((4-(methylamino)-5-(trifluoromethyl)pyrimidin-2-yl)amino)-1H-indazol-1-yl)acetonitrile]: under 50 nM. The same measure for `CNc1nc(Nc2c(C)n(C)c3ccccc23)ncc1C(F)(F)F` [Example 64, N2-(1,2-dimethyl-1H-indol-3-yl)-N4-methyl-5-(trifluoromethyl)pyrimidine-2,4-diamine]: 50 to 200 nM; for `CCNc1nc(Nc2cccc3c2cnn3S(C)(=O)=O)nc2[nH]cc(Cl)c12` [Example 151, 5-chloro-N^4-ethyl-N^2-(1-methylsulfonylindazol-4-yl)-7H-pyrrolo[2,3-d]pyrimidine-2,4-diamine]: under 50 nM. Take `O=S(=O)(C1CC1)n1ncc2c(Nc3ncc(C(F)(F)F)c(NCCF)n3)cccc21` [Example 137, N^2-(1-(cyclopropylsulfonyl)-1H-indazol-4-yl)-N^4-(2-fluoroethyl)-5-(trifluoromethyl) pyrimidine-2,4-diamine]: the IC50 is under 50 nM. `CNc1nc(Nc2cccn3cncc23)ncc1C(F)(F)F` [Example 130, N^2-(imidazo[1,5-a]pyridin-8-yl)-N^4-methyl-5-(trifluoromethyl)pyrimidine-2,4-diamine] displayed an IC50 of under 50 nM. To `CNc1nc(Nc2cc(CC#N)cc3c2cnn3C)ncc1C(F)(F)F` [Example 51, 2-(1-methyl-4-((4-(methylamino)-5-(trifluoromethyl)pyrimidin-2-yl)amino)-1H-indazol-6-yl)acetonitrile] belongs under 50 nM. To `CCS(=O)(=O)n1ncc2c(Nc3ncc(C(F)(F)F)c(NC4CC4)n3)cccc21` [Example 143, N^4-cyclopropyl-N^2-(1-ethylsulfonylindazol-4-yl)-5-(trifluoromethyl)pyrimidine-2,4-diamine] belongs under 50 nM. `CNc1nc(Nc2cccc3c2cnn3S(C)(=O)=O)ncc1C(F)(F)F` [Example 101] gave an IC50 of under 50 nM. The molecule `CNc1nc(Nc2cc3c(cnn3C)cc2C)ncc1C(F)(F)F` [Example 13, N2-(1,5-dimethyl-1H-indazol-6-yl)-N4-methyl-5-(trifluoromethyl)pyrimidine-2,4-diamine] returned an IC50 of under 50 nM.

Consider `CNc1nc(Nc2ccc3cnccn23)ncc1C(F)(F)F` [Example 126, N^4-methyl-N^2-pyrrolo[1,2-a]pyrazin-6-yl-5-(trifluoromethyl)pyrimidine-2,4-diamine], for which the IC50 is at least 200 nM. `CNc1nc(Nc2cccc3[nH]ncc23)ncc1C(F)(F)F` [Example 21, N2-(1H-indazol-4-yl)-N4-methyl-5-(trifluoromethyl)pyrimidine-2,4-diamine] returned an IC50 of under 50 nM. On to `CNc1nc(Nc2cccc3c2cnn3CC(C)(C)O)ncc1C(F)(F)F` [Example 97, 2-methyl-1-(4-((4-(methylamino)-5-(trifluoromethyl)pyrimidin-2-yl)amino)-1H-indazol-1-yl)propan-2-ol], for which the IC50 was under 50 nM.
